Measured values published in patent US20230091472A1, “GALECTIN-3 INHIBITING C-GLYCOSIDE KETONES, ETHERS, AND ALCOHOLS” (GLYCOMIMETICS, INC., priority 2019, published 2023).

Target: T1, galectin-3 (Homo sapiens, UniProt P17931)
T1 construct: purchased IBL IBATGPO414
Assay: Galectin-3 Activity - ELISA Assay (inhibition of binding of galectin-3 to a Galβ1-3GlcNAc carbohydrate structure)
Conditions: competitive ELISA; galectin-3 binding to immobilized Galβ1-3GlcNAcβ1-3Galβ1-4GlcNAcβ-PAA-biotin polymer; A450 readout; read-out: IC50 (μM), Galectin-3 Antagonist Activity
Protocol: Galectin-3 antagonists were evaluated for their ability to inhibit binding of galectin-3 to a Galβ1-3GlcNAc carbohydrate structure. The detailed protocol was as follows. A 1 ug/mL suspension of a Galβ1-3GlcNAcβ1-3Galβ1-4GlcNAcβ-PAA-biotin polymer (Glycotech, catalog number 01-096) was prepared. A 100 uL aliquot of the polymer was added to the wells of a 96-well streptavidin-coated plate (R&D Systems, catalog number CP004). A 100 uL aliquot of 1× Tris Buffered Saline (TBS, Sigma, catalog number T5912-10X) was added to control wells. The polymer was allowed to bind to the streptavidin-coated wells for 1.5 hours at room temperature. The contents of the wells were discarded and 200 uL of 1×TBS containing 1% bovine serum albumin (BSA) was added to each well as a blocking reagent and the plate was kept at room temperature for 30 minutes. The wells were washed three times with 1×TBS containing 0.1% BSA. A serial dilution of test compounds was prepared in a separate V-bottom plate (Corning, catalog number 3897). A 75 uL aliquot of the highest concentration of the compound to be tested was added to the first well in a column of the V-bottom plate then 15 ul were serially transferred into 60 uL 1×TBS through the remaining wells in the column to generate a 1 to 5 serial dilution. A 60 uL aliquot of 2 ug/mL galectin-3 (IBL, catalog number IBATGPO414) was added to each well in the V-bottom plate. A 100 uL aliquot of the galectin-3/test compound mixture was transferred from the V-bottom plate into the assay plate containing the Galβ1-3GlcNAc polymer. Four sets of control wells in the assay plate were prepared in duplicate containing 1) both Galβ1-3GlcNAc polymer and galectin-3, 2) neither the polymer nor galectin-3, 3) galectin-3 only, no polymer, or 4) polymer only, no galectin-3. The plate was gently rocked for 1.5 hours at room temperature. The wells were washed four times with TBS/0.1% BSA. A 100 uL aliquot of anti-galectin-3 antibody conjugated to horse radish peroxidase (R&D Systems, from DGAL30 kit) was added to each well and the plate was kept at room temperature for 1 hour. The wells were washed four times with TBS/0.1% BSA. A 100 uL aliquot of TMB substrate solution was added to each well. The TMB substrate solution was prepared by making a 1:1 mixture of TMB Peroxidase Substrate (KPL, catalog number 5120-0048) and Peroxidase Substrate Solution B (KPL, catalog number 5120-0037). The plate was kept at room temperature for 10 to 20 minutes. The color development was stopped by adding 100 uL 10% phosphoric acid (RICCA Chemical Co., catalog number 5850-16). The absorbance at 450 nm (A450) was measured using a FlexStation 3 plate reader (Molecular Devices). Plots of A450 versus test compound concentration and IC50 determinations were made using GraphPad Prism 6.

T1 sequence (P17931 whole entry): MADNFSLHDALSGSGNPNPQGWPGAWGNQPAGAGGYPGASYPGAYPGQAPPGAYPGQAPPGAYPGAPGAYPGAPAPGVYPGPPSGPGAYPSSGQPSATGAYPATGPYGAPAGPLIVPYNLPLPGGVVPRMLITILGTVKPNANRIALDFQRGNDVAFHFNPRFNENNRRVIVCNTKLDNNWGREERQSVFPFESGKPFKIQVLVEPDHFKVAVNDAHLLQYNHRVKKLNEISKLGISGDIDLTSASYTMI

Row | SMILES | IC50
1 | CC(=O)[C@@H](OCc1ccc(Br)cc1)[C@@H]1OC(CO)[C@H](O)C(n2cc(-c3cc(F)c(F)c(F)c3)nn2)C1O (stereo partly drawn) [Compound 16] | 0.32 µM
2 | COC1C(n2cc(-c3cc(F)c(F)c(F)c3)nn2)[C@@H](O)C(CO)O[C@H]1[C@H](OCc1ccc(Cl)cc1)C(C)=O (stereo partly drawn) [Compound 32] | 0.82 µM
3 | COC1C(n2cc(-c3cc(F)c(F)c(F)c3)nn2)[C@@H](O)C(CO)O[C@H]1[C@H](OCc1ccc(Cl)cc1)C(=O)CC(C)C (stereo partly drawn) [Compound 33] | 0.63 µM
4 | CCC(=O)[C@@H](OCc1ccc(Cl)cc1)[C@@H]1OC(CO)[C@H](O)C(n2cc(-c3cc(F)c(F)c(F)c3)nn2)C1OC (stereo partly drawn) [Compound 35] | 0.75 µM
5 | COC1C(n2cc(-c3cc(F)c(F)c(F)c3)nn2)[C@@H](O)C(CO)O[C@H]1[C@H](OCc1ccc(Cl)cc1)[C@@H](C)O (stereo partly drawn) [Compound 41] | 0.59 µM
6 | COC1C(n2cc(-c3cc(F)c(F)c(F)c3)nn2)[C@@H](O)C(CO)O[C@H]1[C@H](OCc1ccc(C(F)(F)F)nc1)C(C)(C)O (stereo partly drawn) [Compound 44] | 57 µM
7 | [2H]C([2H])([2H])OC1C(n2cc(-c3cc(F)c(F)c(F)c3)nn2)[C@@H](O)C(CO)O[C@H]1[C@H](OCc1ccc(Cl)cc1)C(C)=O (stereo partly drawn) [Compound 77] | 1.09 µM
8 | [2H]C([2H])([2H])OC1C(n2cc(-c3cc(F)c(F)c(F)c3)nn2)[C@@H](O)C(CO)O[C@H]1[C@H](OCc1ccc(Br)cc1)C(=O)C([2H])([2H])C([2H])([2H])[2H] (stereo partly drawn) [Compound 78] | 0.5 µM
9 | [2H]C([2H])([2H])OC1C(n2cc(-c3cc(F)c(F)c(F)c3)nn2)[C@@H](O)C(CO)O[C@H]1[C@H](OCc1ccc(Br)cc1)C(=O)c1ccc(F)cc1 (stereo partly drawn) [Compound 79] | 1.76 µM
10 | [2H]C([2H])([2H])OC1C(n2cc(-c3cc(F)c(F)c(F)c3)nn2)[C@@H](O)C(CO)O[C@H]1[C@H](OCc1ccc(Br)cc1)C(=O)c1ccc(Cl)s1 (stereo partly drawn) [Compound 81] | 3.21 µM

Continued by falling IC50, values first:

Row | IC50 | SMILES
11 | 1.18 µM | COC1C(n2cc(-c3cc(F)c(F)c(F)c3)nn2)[C@@H](O)C(CO)O[C@H]1[C@H](OCc1ccc(Cl)cc1)C(=O)C1CC1 (stereo partly drawn) [Compound 75]
12 | 0.84 µM | COC1C(n2cc(-c3cc(F)c(F)c(F)c3)nn2)[C@@H](O)C(CO)O[C@H]1[C@H](OCc1ccc(Cl)cc1)C(=O)c1cccs1 (stereo partly drawn) [Compound 34]
13 | 0.66 µM | [2H]C([2H])([2H])OC1C(n2cc(-c3cc(F)c(F)c(F)c3)nn2)[C@@H](O)C(CO)O[C@H]1[C@H](OCc1ccc(Cl)cc1)C(=O)C([2H])([2H])C([2H])([2H])[2H] (stereo partly drawn) [Compound 76]
14 | 0.44 µM | [2H]C([2H])([2H])OC1C(n2cc(-c3cc(F)c(F)c(F)c3)nn2)[C@@H](O)C(CO)O[C@H]1[C@H](OCc1ccc(Br)cc1)C(=O)c1ccsc1 (stereo partly drawn) [Compound 80]
15 | 0.32 µM | CCC(=O)[C@@H](OCc1ccc(Cl)cc1)[C@@H]1OC(CO)[C@H](O)C(n2cc(-c3cc(F)c(F)c(F)c3)nn2)C1O (stereo partly drawn) [Compound 74]
